Data set [1] deals with T1, human tyrosinase (Homo sapiens, UniProt P14679).
T1 construct: cells were harvested and lysed using 1% Triton X-100 in 0.067 M potassium phosphate buffer (pH 6.8); endogenous in cells; host or cells: primary human melanocytes (gift from Dr. Todd Ridky, Stanford), clarified Triton X-100 lysate
T1 sequence (P14679 19-529): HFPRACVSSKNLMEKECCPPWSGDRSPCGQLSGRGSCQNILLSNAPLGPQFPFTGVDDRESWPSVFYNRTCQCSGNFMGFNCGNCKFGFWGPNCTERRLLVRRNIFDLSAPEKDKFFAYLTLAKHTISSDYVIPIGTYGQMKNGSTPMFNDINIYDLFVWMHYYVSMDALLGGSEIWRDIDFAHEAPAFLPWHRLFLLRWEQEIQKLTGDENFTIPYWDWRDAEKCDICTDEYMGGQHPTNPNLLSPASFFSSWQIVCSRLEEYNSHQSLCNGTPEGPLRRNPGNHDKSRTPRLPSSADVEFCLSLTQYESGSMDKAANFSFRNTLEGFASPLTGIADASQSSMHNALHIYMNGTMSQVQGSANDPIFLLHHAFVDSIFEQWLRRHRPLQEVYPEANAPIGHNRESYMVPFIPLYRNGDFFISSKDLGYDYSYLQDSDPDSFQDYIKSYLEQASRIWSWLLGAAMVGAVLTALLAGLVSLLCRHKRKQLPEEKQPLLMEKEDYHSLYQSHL
The experiment in a line: Inhibition of freshly extracted human tyrosinase, L-dopa as substrate. The data set is classed as biochemical. Conditions: at 200 μM.

The target of data set [2] is T2, mushroom tyrosinase (Agaricus bisporus, UniProt C7FF04). Put plainly: Kinetic studies of mushroom tyrosinase (Lineweaver-Burk, nonlinear regression). It counts as biochemical. How it is done:
The concentration of mushroom tyrosinase [E] was 24 units/ml. […] [I] ranged from 0 to 0.3 mM. Data were obtained as mean values of 1/V, inverse of the increase of absorbance at wavelength of 475 nm per minute (ΔA475/min) for 5 independent trials. Michaelis Menten constant (Km) and the dissociation constant Ki were derived using nonlinear regression analysis with GraphPad Prism 5.
Experiments were conducted using the same protocol as above except for changes in concentration of [E], [S] and [I]. [E] was 24 units/ml, [S] was 0.05, 0.1, 0.25, 0.5, 0.75 and 1 mM, and [I] was 0, 0.03, 0.1, 0.3 and 1 mM. Lineweaver-Burk reciprocal plots were generated to determine the mode of inhibition (Burk, D., Lineweaver, H., and Horner, C. K. (1934) J Bacteriol 27, 325-340), and Michaelis Menten plots were used to determine Vmax and Km. Nonlinear regression using GraphPad Prism 5 software was used to determine Ki. Prism calculates the Ki using the equation of Cheng, Y., and Prusoff, W. H. (1973) Biochem Pharmacol 22, 3099-3108.

The test system of data set [3] is melanocytes, keratinocytes and fibroblasts. Conditions: for oligopeptides a minimum ratio (3 mM / IC50). The text has this: An ideal therapeutic agent should have a ratio that is higher than two to be considered safe for long-term use in humans.
For data set [4], the system named is primary human melanocytes. Conditions: 72 h. As for the experimental part: (§1) The three cell types were incubated with varying concentrations of the test compounds for 72 h at 37° C. and then processed using the MTT assay. Data are presented as % toxicity relative to the control as a function of concentration, and plotted as means±S.E of 5 independent trials. **p<0.01.
(§2) Keratinocytes, fibroblast, and melanocyte proliferation rates were determined using a TACS® MTT Cell Proliferation Kit (R&D systems, Minneapolis, Minn.). Cells were plated at 2.5×10^4/well in 96-well plates in a humidified atmosphere with 5% CO2 at 37° C. Twenty-four h after plating, test samples were added and cultures were incubated for an additional 72 h. The remainder of the procedure was performed following the manufacturer's protocol.
(§3) Proliferation rates were then assessed at 3 d using an MTT assay.

The test system of data set [5] is primary human fibroblasts. As to conditions: 72 h. As for the experimental part: as §1, §2, §3
The test system of data set [6] is primary human keratinocytes. As to conditions: 72 h. How it is done: as §1, §2, §3
The test system of data set [7] is MNTI cells. Put plainly: Melanin content measurement in MNTI cells. The data set is classed as cell-based, human. Conditions: 50 μM HQ, 3 days.
In data set [8] the test system is primary human melanocytes. Conditions: 6 d. As for the experimental part: (§4) Cells were seeded at equal numbers and incubated with varying concentrations of test samples for 1 day, 3 days and 6 days, harvested, stained with trypan blue, and then counted. The assay was carried out in triplicate, and the % cell death was calculated according to the formula shown in Examples.
(§5) Cellular toxicity was measured using a trypan blue dye exclusion assay. Cells were cultured in 6-well plates at a density of 4×10^5 cells/well for 1, 3, or 6 d in 2 ml of medium. […] The plates were incubated at 37° C. in a humidified 5% CO2 chamber, harvested at the appropriate time, treated with trypan blue, and then counted using a hemacytometer. Cytotoxicity was measured according to the following formula: [1−(# of cells in control−# of live cells in test sample)/# of cells in control]×100%.
(§6) The cytotoxic effect of P16-18 on primary human melanocytes, keratinocytes, and fibroblasts were then assessed at 1, 3, and 6 d using trypan blue exclusion.

Data set [9] deals with primary human fibroblasts. As to conditions: 6 d, 30 μM. As for the experimental part: as §4, §5, §6
In data set [10] the test system is primary human keratinocytes. Conditions: 6 d. How it is done:
as §4, §5, §6

Data set [11] has as its target tyrosinase. Conditions: read-out: published IC50; published value; cited from earlier work.
The target in data set [12] is T2, mushroom tyrosinase. Put plainly: Enzymatic assay of mushroom tyrosinase, L-tyrosine as substrate. It counts as biochemical. How it is done: The assay mixture was incubated at 37° C.
In order to assess this potential, their inhibitory activity against mushroom tyrosinase was tested.

We go through 7 compounds from patent US9320698B2, “Peptide tyrosinase inhibitors and uses thereof” (Escape Therapeutics, Inc., priority 2011, dated 2016).

No end group written: not given here.

T2 sequence (C7FF04 1-392): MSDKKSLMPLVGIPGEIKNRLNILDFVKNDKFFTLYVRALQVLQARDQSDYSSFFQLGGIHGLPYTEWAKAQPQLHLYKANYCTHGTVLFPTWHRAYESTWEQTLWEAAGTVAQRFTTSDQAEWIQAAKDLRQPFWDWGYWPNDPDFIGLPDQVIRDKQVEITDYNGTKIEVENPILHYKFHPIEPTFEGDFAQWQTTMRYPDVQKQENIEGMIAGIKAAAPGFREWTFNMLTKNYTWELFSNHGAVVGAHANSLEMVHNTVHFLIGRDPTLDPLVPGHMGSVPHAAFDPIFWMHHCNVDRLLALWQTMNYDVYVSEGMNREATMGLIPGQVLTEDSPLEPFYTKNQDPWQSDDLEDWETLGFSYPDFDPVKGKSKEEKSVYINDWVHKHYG
T2 sequence (G1K3P4 entry or part of it, further chain): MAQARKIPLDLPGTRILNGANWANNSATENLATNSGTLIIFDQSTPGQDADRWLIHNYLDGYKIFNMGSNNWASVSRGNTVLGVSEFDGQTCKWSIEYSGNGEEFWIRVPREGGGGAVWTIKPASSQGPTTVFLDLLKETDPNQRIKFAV

RRYWYWRR [Peptide P18]: the “human tyrosinase activity reduced by” value in data set [1] worked out at 25%.

In the case of RRWWRRYY [Peptide P16], the “human tyrosinase activity reduced by” value in data set [1] stood at 30%.

Turning to `Oc1ccc(O)cc1` [HQ, hydroquinone], in data set [2] (Table 4, from Lineweaver Burk plots), the Nature of inhibition result is “competitive”. For the same compound, the “ratio of 50% cytotoxic concentration to IC50” value in data set [3] was “significantly less than one”. Also, the “reduction in proliferation rate” value turned out to be 50±3% in data set [4] (100 μM), 45±2% in [5] (100 μM) and 30±3% in data set [6] (100 μM). The “proliferation inhibited by” value in [4] (3 mM) is “over 90%”; in data set [5] (3 mM), “over 90%”; in [6] (3 mM), “up to 63±3%”. Besides, the “human tyrosinase activity reduced by” value in data set [1] stood at 5%. Further, the “melanin content reduced by” value in data set [7] is listed as 50±4%. In [8] (20 μM), this compound showed a melanocyte cell death of 50±3%. The results for the cell death in data set [8] (30 μM), in data set [9] and in data set [10] (300 μM) were 70±3%, 60±2% and 42±3%, respectively. In [8] (100 μM), the “cytotoxicity / cell death” value came to 100%. Further, the “rate of cell death” value in data set [10] (3 mM) is 77±4%. The IC50 in [11] is about 700 µM.

As to RRFVCC [Peptide P15], the “tyrosinase inhibition (in words)” value in data set [12] (mushroom tyrosinase) is recorded as “weak inhibition”.

Consider RRRYWYYR [Peptide P17], for which the “human tyrosinase activity reduced by” value in [1] came to 12%.

For the compound “RRFVCC (chains of the parent or of the whole protein) [Peptide P15]”, the IC50 in data set [12] (Table 4, mushroom tyrosinase) came to 1120 ± 50 µM; in data set [12] (mushroom tyrosinase) it was 1100 µM. In addition, the Ki in [2] (Table 4, mushroom tyrosinase) amounted to 167 ± 11 µM.

Turning to RRFVLL [Peptide P14], the IC50 in [12] (mushroom tyrosinase) amounted to 1800 µM.
